According to ChEMBL document CHEMBL3352018 (J Med Chem, 2014):
Calls of active or inactive are those of the source. No cut-off for these calls is given here.

Legend:
Type in all cases: cell-based
[1] = target: T1, Sodium-dependent neutral amino acid transporter B(0)AT2 (Homo sapiens, UniProt Q9H2J7); test: Inhibition of eGFP-tagged human B0AT2 expressed in HEK293 cells measured within 10 mins by [3H]proline uptake assay
T1 sequence (Q9H2J7 whole entry): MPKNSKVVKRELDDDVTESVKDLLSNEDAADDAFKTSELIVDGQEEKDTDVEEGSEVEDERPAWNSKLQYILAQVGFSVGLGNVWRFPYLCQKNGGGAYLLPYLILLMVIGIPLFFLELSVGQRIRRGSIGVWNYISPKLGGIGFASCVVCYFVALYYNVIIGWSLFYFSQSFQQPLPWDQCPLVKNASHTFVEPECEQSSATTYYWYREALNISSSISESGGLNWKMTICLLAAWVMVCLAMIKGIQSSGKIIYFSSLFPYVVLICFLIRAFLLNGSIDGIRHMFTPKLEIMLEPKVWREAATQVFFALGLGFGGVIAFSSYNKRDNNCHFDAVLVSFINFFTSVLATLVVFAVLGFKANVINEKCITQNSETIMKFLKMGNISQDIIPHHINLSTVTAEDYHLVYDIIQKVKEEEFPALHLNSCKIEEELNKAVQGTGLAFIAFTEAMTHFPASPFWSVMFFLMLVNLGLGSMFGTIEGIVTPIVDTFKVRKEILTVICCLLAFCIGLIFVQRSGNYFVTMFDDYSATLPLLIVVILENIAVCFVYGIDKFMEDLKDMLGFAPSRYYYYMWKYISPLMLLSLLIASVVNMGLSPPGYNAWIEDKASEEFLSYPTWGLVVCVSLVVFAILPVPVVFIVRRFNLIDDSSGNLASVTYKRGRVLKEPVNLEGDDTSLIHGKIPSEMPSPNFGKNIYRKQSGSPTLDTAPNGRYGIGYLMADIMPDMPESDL

Histamine H1 receptor = Histamine H1 receptor (Homo sapiens, UniProt P35367); test: Displacement of [3H]mepyramine from human histamine H1 receptor expressed in Sf9 cells by scintillation counting method
[2] = target: T2, Sodium-dependent neutral amino acid transporter B(0)AT2 (Homo sapiens) (UniProt Q9H2J7); test: Inhibition of eGFP-tagged human B0AT2 expressed in HEK293 cells at 5 mM measured within 10 mins by [3H]proline uptake assay
T2 sequence (whole entry): T1 sequence (Q9H2J7 whole entry)

[3] = target: T2, Sodium-dependent neutral amino acid transporter B(0)AT2 (Homo sapiens); test: Reversible inhibition of eGFP-tagged human B0AT2 expressed in HEK293 cells assessed as reduction in proline-induced inward current at 100 uM measured post drug wash out by patch clamp assay
[4] = target: T2, Sodium-dependent neutral amino acid transporter B(0)AT2 (Homo sapiens); test: Inhibition of eGFP-tagged human B0AT2 expressed in HEK293 cells assessed as reduction in proline-induced inward current at 100 uM by patch clamp assay
[5] = target: T2, Sodium-dependent neutral amino acid transporter B(0)AT2 (Homo sapiens); test: Activation of eGFP-tagged human B0AT2 expressed in HEK293 cells assessed as induction of inward current at 100 uM by patch clamp assay

Sequence of Histamine H1 receptor (P35367 whole entry): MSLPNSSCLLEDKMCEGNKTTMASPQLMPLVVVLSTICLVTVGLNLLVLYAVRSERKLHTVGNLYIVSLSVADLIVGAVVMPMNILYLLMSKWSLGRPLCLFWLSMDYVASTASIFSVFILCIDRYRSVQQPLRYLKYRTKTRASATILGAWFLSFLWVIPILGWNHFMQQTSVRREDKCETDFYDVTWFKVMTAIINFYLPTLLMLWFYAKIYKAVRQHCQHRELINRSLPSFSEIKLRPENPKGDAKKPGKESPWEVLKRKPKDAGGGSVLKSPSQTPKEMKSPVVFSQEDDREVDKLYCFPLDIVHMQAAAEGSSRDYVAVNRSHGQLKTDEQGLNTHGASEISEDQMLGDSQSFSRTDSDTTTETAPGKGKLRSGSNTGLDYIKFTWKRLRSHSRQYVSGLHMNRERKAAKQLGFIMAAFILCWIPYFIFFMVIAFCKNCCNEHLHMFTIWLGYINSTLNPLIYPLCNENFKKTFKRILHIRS

Row | IC50 [1] | Compound | further results
1 | 10.8 µM | CC(C)CC(=O)N1CCC(=C2c3ccc(Cl)cc3CCc3cccnc32)CC1 | Ki (Histamine H1 receptor): 0.289 µM
2 | 19.6 µM | COC(=O)N1CCC(=C2c3ccc(Cl)cc3CCc3cccnc32)CC1 | –
3 | 16.8 µM | CC(C)OC(=O)N1CCC(=C2c3ccc(Cl)cc3CCc3cccnc32)CC1 | –
4 | 36 µM | CCC(=O)N1CCC(=C2c3ccc(Cl)cc3CCc3cccnc32)CC1 | –
5 | 5.7 µM | O=C(CC1CCCCC1)N1CCC(=C2c3ccc(Cl)cc3CCc3cccnc32)CC1 | Ki (Histamine H1 receptor): 0.441 µM
6 | > 80 µM | CCOC(=O)N1CCC(=C2c3ccc(Cl)cc3CCc3ccc(CO)nc32)CC1 | –
7 | 4.9 µM | C=CCOC(=O)N1CCC(=C2c3ccc(Cl)cc3CCc3cccnc32)CC1 | –
8 | > 80 µM | CCCS(=O)(=O)N1CCC(=C2c3ccc(Cl)cc3CCc3cccnc32)CC1 | –
9 | > 80 µM | CN1CCC(=C2c3ccc(Cl)cc3CCc3cccnc32)CC1 | –
10 | 18.7 µM | NCCC(=O)N1CCC(=C2c3ccc(Cl)cc3CCc3cccnc32)CC1 | –
11 | > 80 µM | O=C(Oc1ccccc1)N1CCC(=C2c3ccc(Cl)cc3CCc3cccnc32)CC1 | –
12 | 17.6 µM | CCOC(=O)N1CCC(=C2c3ccc(Cl)cc3CCc3cc(O)cnc32)CC1 | –
13 | 5.2 µM | CCCCCC(=O)N1CCC(=C2c3ccc(Cl)cc3CCc3cccnc32)CC1 | –
14 | 22.9 µM | NCC(=O)N1CCC(=C2c3ccc(Cl)cc3CCc3cccnc32)CC1 | –
15 | > 80 µM | CCOC(=O)N1CCC(=C2c3ccc(Cl)cc3CCc3c(C#N)ccnc32)CC1 | –
16 | 4.5 µM | CCOC(=O)N1CCC(=C2c3ccc(Cl)cc3CCc3cc(OC)cnc32)CC1 | Ki (Histamine H1 receptor): 1.95 µM
17 | > 80 µM | CCOC(=O)N1CCC(=C2c3ccc(Cl)cc3CCc3ccc(C#N)nc32)CC1 | –
18 | 18.3 µM | CCOC(=O)N1CCC(=C2c3ccc(Cl)cc3CCc3c(CO)ccnc32)CC1 | –
19 | 16.1 µM | O=C(Cc1ccccc1)N1CCC(=C2c3ccc(Cl)cc3CCc3cccnc32)CC1 | –

Row | IC50 [1] | Compound | further results
20 | 7.8 µM | CC(C)COC(=O)N1CCC(=C2c3ccc(Cl)cc3CCc3cccnc32)CC1 | Ki (Histamine H1 receptor): 1.27 µM
21 | – | NC1(C(=O)O)CC2CCC1C2 (stereo unspecified) | inhibition [2]: 80%
22 | > 80 µM | O=C(OCc1ccccc1)N1CCC(=C2c3ccc(Cl)cc3CCc3cccnc32)CC1 | –
23 | 7.7 µM | CC(C)C[C@@H](N)C(=O)N1CCC(=C2c3ccc(Cl)cc3CCc3cccnc32)CC1 | Ki (Histamine H1 receptor): 4.65 µM
24 | 3.4 µM | CCCCC(=O)N1CCC(=C2c3ccc(Cl)cc3CCc3cccnc32)CC1 | Ki (Histamine H1 receptor): 0.147 µM
25 | 35 µM | CCNC(=O)N1CCC(=C2c3ccc(Cl)cc3CCc3cccnc32)CC1 | –
26 | 4 µM | CCOC(=O)N1CCC(=C2c3ccc(Cl)cc3CCc3cccnc32)CC1 [LORATADINE] | inhibition [3]: Active; inhibition [4]: Active; Activity [5]: inactive
27 | 4.6 µM | CCCOC(=O)N1CCC(=C2c3ccc(Cl)cc3CCc3cccnc32)CC1 | –
28 | 39.1 µM | CC(C)[C@@H](N)C(=O)N1CCC(=C2c3ccc(Cl)cc3CCc3cccnc32)CC1 | –
29 | 41.5 µM | CC(C)C(=O)N1CCC(=C2c3ccc(Cl)cc3CCc3cccnc32)CC1 | –
30 | 54.8 µM | CC(=O)N1CCC(=C2c3ccc(Cl)cc3CCc3cccnc32)CC1 [SCH-37370] | –
31 | 12.4 µM | CCOC(=O)N1CCC(=C2c3ccc(Cl)cc3CCc3ccc(C(=O)OC)nc32)CC1 | Ki (Histamine H1 receptor): > 10 µM
32 | 5 µM | C/C=C/C(=O)N1CCC(=C2c3ccc(Cl)cc3CCc3cccnc32)CC1 | Ki (Histamine H1 receptor): 0.153 µM
33 | 5.3 µM | CCSC(=O)N1CCC(=C2c3ccc(Cl)cc3CCc3cccnc32)CC1 | –
34 | 14.8 µM | CCOC(=O)N1CC=C(C2c3ccc(Cl)cc3CCc3cccnc32)CC1 (stereo unspecified) | –
35 | > 80 µM | CC(C)(C)OC(=O)N1CCC(=C2c3ccc(Cl)cc3CCc3cccnc32)CC1 | –
36 | > 40 µM | Cc1cncc(CN2CCC(=C3c4ccc(Cl)cc4CCc4cccnc43)CC2)c1 [RUPATADINE] | –
37 | 26.4 µM | COCC(=O)N1CCC(=C2c3ccc(Cl)cc3CCc3cccnc32)CC1 | –
38 | 4.9 µM | CCCC(=O)N1CCC(=C2c3ccc(Cl)cc3CCc3cccnc32)CC1 | Ki (Histamine H1 receptor): 0.171 µM

Row | Compound | IC50 [1] | further results
39 | Clc1ccc2c(c1)CCc1cccnc1C2=C1CCNCC1 [DESLORATADINE] | 172 µM | –
